According to US20210230213A1, “ARAMCHOL SALTS” (GALMED RESEARCH AND DEVELOPMENT LTD., priority 2013, published 2021):
≈ marks a conversion by molar mass, not a printed value. Where a name gives a salt, the structure may show the parent alone. Read-outs that look alike come from different tables or passages of the source.

Tests used:
[1] = Saturated solubility in buffer solutions and bio-relevant media at 37° C. (Example 6); type: physicochemical; details: for solubility at 30 min / solubility at 24 h: thermodynamic from solid
[2] = Fill weight of size 00 HPMC capsule; type: physicochemical; details: hard HPMC capsule size 00, filled as is without tapping
Source text: Aramchol (free acid), and the three salts were filled as are, into hard HPMC (Hypromellose; Capsule size 00 (CapsCanada, ON, Canada) without taping, fill weight is presented in table 9.

[3] = physchem; details: 50 °C, organic solvent or mixture
[4] = In vivo permeability / PK after intrajejunal administration in cannulated rats (Example 7); set-up: species or system male Wistar rats; details: rat; for Tmax: median; for Cmax: 100 mg/kg (based on free acid) in PBS 30 mg/mL, plasma Aramchol (free acid)
Experimental: An in vivo permeability study of Aramchol salts was performed in male Wistar rats cannulated in the jugular vein and in the jejunum. Intestinal cannulation was performed in order to bypass protonation of Aramchol salts in acidic gastric pH. Aramchol salts solubilized in PBS (30 mg/mL) were administered to rats intestine (jejunum) in a dose of 100 mg/kg (based on free acid), via a cannula inserted into the proximal side of the jejunum. A suspension of Aramchol free acid (in PBS, 30 mg/mL) was administered via the same route and was used as control. Blood samples were withdrawn via a cannula inserted into jugular vein at pre-determined time points (pre-dose, 1 hr, 2 hr, 4 hr, 8 hr, 12 hr, 24 hr post dose). Plasma concentrations of Aramchol (free acid) were measured using a liquid chromatography-tandem mass spectrometry (LC-MS-MS) method by Analyst Bioanalytical Laboratories, Israel. All PK parameters were calculated using non-compartmental analysis. Only those plasma concentrations equal to or greater than the lower limit of quantitation (LOQ) (48.66 ng/mL) were used in the analysis. Plasma concentrations <LOQ that occurred from pre-dose to the first concentration ≥LOQ were treated as 0. Actual sampling times were used for all pharmacokinetic analyses. The following PK parameters were calculated: maximum plasma concentration (Cmax), time to Cmax (Tmax), area under the plasma concentration-time curve from time of administration until the last plasma concentration (AUC0-4), AUC/dose, elimination half-life (t½). Cmax and Tmax were taken directly from the data. Area under the curve from zero to the final sample with a concentration ≥LOQ. AUC0-4 was calculated using the linear trapezoidal method.

[5] = Dynamic Vapour Sorption (DVS); type: physicochemical
Experimental: The samples was weighed in a glass pan, typically 20-30 mg, and equilibrated at 0% relative humidity (RH). After the material had dried, the RH was increased with 10% per step for 1 hour per increment, ending at […].
The software used for data collection was DVSWin v3.01 No Video. Data analysis was performed using DVS Standard Analysis Suite v6.3.0 (Standard).
After completion of sorption cycle, the material was dried. XRPD was performed before and after DVS.

[6] = Aqueous solubility at 20° C., shake-flask, stepwise water addition (Example 2); type: physicochemical; details: for solubility: water, 20 °C, thermodynamic from solid, 20° C.
Experimental: The Aramchol salts of the present invention were further assessed for their solubility in water. […] 5 mg of each salt was weighed. Water was added stepwise until a clear solution was obtained (Table 2, solubility in water). The pH of each solution was measured (Table 2, pH after solubility).

[7] = Stability of Aramchol free acid; type: physicochemical; details: 6 months 40° C./75% RH; 12 months 25° C./60% RH; 30° C./65% RH
Experimental: For Aramchol free acid, 6 months stability data have been generated at 40° C./75% relative humidity and for 12 months at real time 25° C./60% relative humidity and also at the intermediate conditions of 30° C./65% relative humidity.

[8] = Solubility of Aramchol (free acid) in aqueous media; type: physicochemical
[9] = in vivo; details: dog, in vivo
Experimental: Capsules containing 100 mg of Aramchol were dosed to dogs as either the free acid or the meglumine salt.
The complete data-set across all animals and time-points for each dose form (free acid or meglumine salt) were fit to single compartment PK models with first order rate of absorption Ka (h−1) and elimination parameterised by CL and V (rate of elimination=CL/V, h−1). For the meglumine salt group, the first dose data for M5 was removed.
Capsules containing 100 mg of Aramchol were dosed to dogs as either the free acid or the meglumine salt BID. […] A clinical study that investigated the plasma concentration of Aramchol after oral dosing of 300 mg BID at steady state was conducted in 16 healthy volunteers.

[10] = Bulk and tapped density; type: physicochemical
Source text: Measurements of tapped and bulk densities are used to predict the flow properties and compressibility of powders. These two properties are important for manufacture of solid dosage formulations, such as tablets and capsules. Compounds with low values of tapped and bulk densities may be subject to difficulties in tablet compression, and therefore may require additional processing for improving flow properties. […] Therefore, to improve flow properties a wet granulation process is used prior to tablet compression.

[11] = Twice daily administration for 10 days of Aramchol and Aramchol meglumine in humans (Example 9); type: in vivo; details: free acid 300 mg, meglumine salt 383 mg
Experimental: 300 mg aramchol free acid were administered to human subjects twice daily, and 383 mg aramchol meglumine salt were administered to human subjects twice daily, as detailed in FIG. 13.

[12] = Clinical study, plasma Aramchol at steady state after 300 mg BID; type: in vivo, humans; details: human, po
[13] = water, Aramchol free acid and base 1:1, 50° C.
[14] = Demi-Water (pH 7.8), 24 h, 37° C.
[15] = FaSSIF (pH 6.5), 30 min, 37° C.
[16] = FeSSIF (pH 5.0), 30 min, 37° C.
[17] = Phosphate buffer pH 7.0, 24 h, 37° C.
[18] = male, Wistar, plasma, 100 mg/kg, mean ± standard error
[19] = male, Wistar, plasma, 100 mg/kg, mean ± standard error, read-out: AUC 0-t
[20] = male, Wistar, plasma, 100 mg/kg, read-out: Tmax
[21] = male, Wistar, mean ± standard error, read-out: Cmax
[22] = 100 mg/kg, mean ± standard error
[23] = RH raised from 0% in 10% steps to 95% RH, stepwise, reversible

CCCCCCCCCCCCCCCCCCCC(=O)N[C@H]1CC[C@@]2(C)[C@@H](C1)C[C@@H](O)[C@@H]1[C@@H]2C[C@H](O)[C@]2(C)[C@@H]([C@H](C)CCC(=O)O)CC[C@@H]12 [Tromethamine, 3β-arachidylamido-7α,12α-dihydroxy-5β-cholan-24-oic acid tromethamine salt]
Dissolved (50 in g in 1) at 50° C. [13]: No | solubility [1, 14]: Gel | solubility ([1]; Demi-Water (pH 7.8), 24 h, 37° C., listed as tromethamine salt): turned into gets | solubility [1, 15]: Gel | solubility ([1]; FaSSIF (pH 6.5), 24 h, 37° C.): Gel | solubility [1, 16]: Gel | solubility ([1]; FeSSIF (pH 5.0), 24 h, 37° C.): Gel | solubility ([1]; PBS pH 7.4, 24 h, 37° C.): Gel | solubility ([1]; Phosphate buffer pH 6.5, 30 min, 37° C.): Gel | solubility ([1]; Phosphate buffer pH 6.5, 24 h, 37° C.): Gel | solubility [1, 17]: Gel | solubility at 30 min ([1]; aqueous buffer, PBS pH 7.4, 30 min, 37° C.): 23000 µg/mL | solubility at 30 min ([1]; aqueous buffer, Phosphate buffer pH 7.0, 30 min, 37° C.): 29400 µg/mL | solubility at 30 min ([1]; saline or isotonic, Saline pH 5.5, 30 min, 37° C.): 30 µg/mL | solubility at 30 min ([1]; simulated gastric fluid, HCl buffer pH 1.2, 30 min, 37° C.): 20 µg/mL | solubility at 24 h ([1]; simulated gastric fluid, HCl buffer pH 1.2, 24 h, 37° C.): 290 µg/mL | solubility at 30 min ([1]; Demi-Water (pH 7.8), 30 min, 37° C.): 45000 µg/mL | fill weight of one 00 size capsule [2]: 0.31 gram | solubility at 2 h [3]: > 50000 µg/mL | Half-life [4, 18]: 6.5 ± 2.4 h | AUC(0-t) [4, 19]: 18.6 ± 2.28 µg·h/mL | Tmax [4, 20]: 2 h | Cmax [4, 21]: 2250 ± 208 ng/mL | AUC/dose [4, 22]: 184.7 ± 22.7 (4) hr × ng × kg/mL × mg | Mass uptake (DVS) [5, 23]: 9.4% (stepwise; reversible) | pH of solution ([6]; after solubility test in water, XRPD: Crystalline): 8 | solubility ([6]; XRPD: Crystalline): 32000 to 95000 µg/mL | solubility ([6]; XRPD: Poorly crystalline): < 11000 µg/mL

Choline
Dissolved (50 in g in 1) at 50° C.: Yes | salt remains in solution after cooling to 20° C.: yes

CCNCC [Diethylamine]
Dissolved (50 in g in 1) at 50° C. [13]: Yes | salt remains in solution after cooling to 20° C. (water, cooled to 20° C.): no | Mass uptake (DVS) [5, 23]: 14.8% (stepwise; reversible)

c1ccc(CNCCNCc2ccccc2)cc1 [Benzathine]
Dissolved (50 in g in 1) at 50° C. [13]: No

Diethanolamine
Dissolved (50 in g in 1) at 50° C. [13]: Yes | salt remains in solution after cooling to 20° C. (water, cooled to 20° C.): yes | Mass uptake (DVS) [5, 23]: 6.9% (stepwise; reversible)

L-Arginine
Dissolved (50 in g in 1) at 50° C. [13]: Yes | salt remains in solution after cooling to 20° C. (water, cooled to 20° C.): no

CCCCCCCCCCCCCCCCCCCC(=O)N[C@H]1CCC2(C)C(CC(O)C3C2C[C@H](O)C2(C)C(C(C)CCC(=O)O)CCC32)C1 (stereo in doubt) [Aramchol (free acid), 3β-arachidylamido-7α,12α-dihydroxy-5β-cholan-24-oic acid, reference compound]
solubility ([1]; Acetate buffer pH 4.5, 24 h, 37° C.): Not soluble | solubility [1, 14]: Not soluble | solubility ([1]; HCl buffer pH 1.2, 24 h, 37° C.): Not soluble | solubility [1, 17]: Not soluble | solubility ([1]; Saline pH 5.5, 24 h, 37° C.): Not soluble | solubility at 24 h ([1]; phosphate buffer, pH 6.5, 24 h): < 1 µg/mL | solubility at 30 min [1, 15]: 50 µg/mL (≈ 71.2 µM) | solubility at 24 h ([1]; FaSSIF (pH 6.5), 24 h, 37° C.): 130 µg/mL (≈ 185 µM) | solubility at 30 min [1, 16]: 660 µg/mL (≈ 940 µM) | solubility at 24 h ([1]; FeSSIF (pH 5.0), 24 h, 37° C.): 310 µg/mL (≈ 442 µM) | stability [7]: no significant changes to any parameters | solubility ([8]; FeSSIF, pH 5, fessif, read-out: max solubility in FeSSIF): 660 µg/mL (≈ 940 µM) | solubility ([8]; aqueous buffer, buffer pH 6.0, read-out: solubility in buffer at pH 6.0): < 1 µg/mL | fill weight of one 00 size capsule [2]: 0.15 gram | Half-life [4, 18]: 4.5 h | AUC(0-t) [4, 19]: 12.1 ± 3.63 µg·h/mL | Tmax [4, 20]: 4 h | Cmax [4, 21]: 1360 ± 359 ng/mL | AUC/dose [4, 22]: 124.2 ± 38.9 (5) hr × ng × kg/mL × mg | AUC0-12 h/AUCinf [9]: 0.97 | Ka [9]: 0.234 h⁻¹ | V [9]: 16893 | clearance [9]: 6.82 mL/min | AUC ([9]; 100 mg): 901 µg·h/mL | AUC(0-inf) ([9]; AUCinf D1): 241 µg·h/mL | AUC(0-inf) ([9]; AUCinf from day 11 onwards): 1130 µg·h/mL | Half-life ([9]; po, 100 mg, Half-life): 25.9 h | Bulk density [10]: 0.15 g/mL | Tapped density [10]: 0.17 g/mL | AUCss 0-12 h ([11]; BID for 10 days): 53 µg·h/mL | Cavg ([11]; BID for 10 days): 4154 ng/mL | AUC ([11]; human, blood, BID): 53 µg·h/mL | AUC [12]: 114 µg·h/mL

CCCCCCCCCCCCCCCCCCCC(=O)NC1CCC2(C)C(C1)CC(O)C1C2CC(O)C2(C)C(C(C)CCC(=O)O)CCC12.N (stereo not drawn) [Ammonia]
Dissolved (50 in g in 1) at 50° C.: No | salt remains in solution after cooling to 20° C.: no | Mass uptake (DVS) [5]: 5.4% (stepwise; reversible)

2-diethylamino-ethanol
salt remains in solution after cooling to 20° C.: yes | Dissolved (50 in g in 1) at 50° C. (50° C.): Yes | Mass uptake (DVS) [5]: 12.1% (stepwise; reversible)

CN(C)CCO [Deanol]
Dissolved (50 in g in 1) at 50° C. [13]: Yes | salt remains in solution after cooling to 20° C. (water, cooled to 20° C.): yes | Mass uptake (DVS) [5, 23]: 17.3% (stepwise; reversible)

3β-arachidylamido-7α,12α-dihydroxy-5β-cholan-24-oic acid lysine salt [L-Lysine]
Dissolved (50 in g in 1) at 50° C. [13]: No | fill weight of one 00 size capsule [2]: 0.33 gram | Cmax ([4]; mean ± standard error): 7294.2 ± 5463.0 (5) ng/mL | AUC(0-t) [4, 22]: 26460.3 ± 9415.5 (5) hr × ng/mL | AUC/dose [4, 22]: 270.0 ± 99.0 (5) hr × ng × kg/mL × mg | t1/2 [4, 22]: 5.2 ± 1.0 (5) hr | Tmax ([4]; 100 mg/kg): 2.0 (5) [2-4] hr | Mass uptake (DVS) [5, 23]: 23.1% (stepwise, reversible)

NCCO [Ethanolamine]
Mass uptake (DVS) [5, 23]: 13.2% (stepwise; reversible)
